The test system of the assay is BSAP and PICP serum levels, NTX urine levels. As to the kind of experiment: Example 3 clinical trial of rhPTH(1-34) vs alendronate: bone markers. The format is in vivo, human. Conditions: alendronate 10 mg per day. The procedure:
• Number of Subjects: • rhPTH(1-34): 73 enrolled, 51 finished. • Alendronate (Fosamax®): 73 enrolled, 57 finished. • Diagnosis and Inclusion Criteria: Women aged 65±8 years, postmenopausal for 19±19 years, selected for a baseline spine bone mineral density of 0.8±0.1 and a T value of −2.2. Dosage and Administration: • Test Product (blinded) • rhPTH(1-34): 40 μg/day, given subcutaneously • Reference (Control) Therapy (blinded) • Alendronate (Fosamax®): 10 mg per patient per day • Duration of Treatment: • rhPTH(1-34): 12-18 months, with follow up from time of withdrawal of drug to 18 months of study. • Alendronate: 12-18 months, with follow up from time of withdrawal of drug to 18 months of study. • Criteria for Evaluation: Spine x-ray, serum biological markers (calcium, bone-specific alkaline phosphatase, procollagen I carboxy-terminal propeptide); urine makers (calcium, N-telopeptide, fir deoxypyridinoline); 1,25-dihydroxyvitamin D; bone mineral density spine, hip, wrist, and total body.
Measures of BSAP, PICP, and NTX levels were determined for each patient through the course of therapy generally according to methods described above in Example 1.

Regarding `NCCCC(O)(P(=O)(O)O)P(=O)(O)O` [alendronate, reference compound], the PICP serum level entry (FIG. 8) was “a decrease in PICP was observed”. The NTX urine levels result (FIG. 9) was “generally declined slightly during the first 6 months of the study and then remained diminished for the duration of the study”. In addition, for the setting “after about 4 months, FIG. 7”, the BSAP serum level entry is on record as “A decrease in BSAP level was observed”.

Source of the values: patent US20050255537A1, “Method for monitoring treatment with a parathyroid hormone” (priority 1999, published 2005).
